Results: the NIST ThermoML archive (doi:10.1021/acs.jced.5b00242)

Legend:
[1] = refractive index (Na D-line) (dimensionless); conditions: 101 kPa, Liquid, Standard Abbe refractometry
[2] = Liquid; for viscosity: 101 kPa; for mass density: 101.33 kPa, Vibrating tube method
[3] = xn = mol fraction of the nth substance listed; conditions: 101 kPa, Liquid, x1 = 1; for viscosity: Stabinger Viscometer; for mass density: Vibrating tube method
[4] = refractive index (Na D-line) (dimensionless); xn = mol fraction of the nth substance listed; conditions: 101 kPa, Liquid, Standard Abbe refractometry, x1 = 1

CC[n+]1ccn(C)c1.N[C@@H](CO)C(=O)[O-] [3-ethyl-1-methyl-1H-imidazolium L-serinate]
Conditions	mass density, [2] [kg/m3]	refractive index, [1]
293.15 K	1206.8	1.52699
298.15 K	1203.7	1.52565
303.15 K	1200.5	1.52429
308.15 K	1197.3	1.52294
313.15 K	1194	1.52159
318.15 K	1190.9	1.52022
323.15 K	1187.8	1.51887
328.15 K	1184.7	1.51755
333.15 K	1181.7	1.5162
338.15 K	1178.7	1.51486
343.15 K	1175.7	1.51353
348.15 K	1172.8	1.5122
353.15 K	1169.7	1.51084

[2], Stabinger Viscometer
Conditions	viscosity [mPa·s]
293.15 K	3796.8
298.15 K	2235.5
303.15 K	1376.2
308.15 K	882.82
313.15 K	588.27
318.15 K	405.12
323.15 K	287.6
328.15 K	209.91
333.15 K	157.29
338.15 K	119.86
343.15 K	93.36
348.15 K	74.03
353.15 K	59.91

CCn1cc[n+](C)c1.C[C@H](N)C(=O)[O-] [1-ethyl-3-methylimidazolium L-alaninate]
Conditions	mass density, [2] [kg/m3]	refractive index, [1]
293.15 K	1126.3	1.51366
298.15 K	1123	1.51223
303.15 K	1119.8	1.51081
308.15 K	1116.6	1.50937
313.15 K	1113.5	1.50793
318.15 K	1110.5	1.50651
323.15 K	1107.5	1.50505
328.15 K	1104.4	1.50358
333.15 K	1101.3	1.50217
338.15 K	1098.3	1.50074
343.15 K	1095.2	1.49932
348.15 K	1092.1	1.49795
353.15 K	1088.9	1.49656

[2], Stabinger Viscometer
Conditions	viscosity [mPa·s]
293.15 K	382.06
298.15 K	263.98
303.15 K	187.79
308.15 K	137.47
313.15 K	103.54
318.15 K	79.34
323.15 K	62.21
328.15 K	49.69
333.15 K	40.5
338.15 K	33.22
343.15 K	27.72
348.15 K	23.38
353.15 K	20.03

CCn1cc[n+](C)c1.O=C([O-])[C@@H]1CCCN1 [1-ethyl-3-methyl-1H-imidazolium L-prolinate]
Conditions	mass density, [2] [kg/m3]	refractive index, [1]
293.15 K	1145.9	1.52291
298.15 K	1142.8	1.52151
303.15 K	1139.6	1.52009
308.15 K	1136.4	1.5187
313.15 K	1133.2	1.51731
318.15 K	1130.1	1.51591
323.15 K	1127.1	1.51454
328.15 K	1124	1.51315
333.15 K	1121	1.51177
338.15 K	1118	1.51035
343.15 K	1115	1.50897
348.15 K	1112	1.50757
353.15 K	1109.1	1.5062

[2], Stabinger Viscometer
Conditions	viscosity [mPa·s]
293.15 K	1928.4
298.15 K	1194.6
303.15 K	771.51
308.15 K	517.61
313.15 K	359.21
318.15 K	256.92
323.15 K	188.66
328.15 K	141.76
333.15 K	108.85
338.15 K	85.12
343.15 K	67.69
348.15 K	54.73
353.15 K	44.89

CCn1cc[n+](C)c1.NCC(=O)[O-] [1-ethyl-3-methylimidazolium ammonioacetate]
Conditions	mass density, [2] [kg/m3]	refractive index, [1]
293.15 K	1164.3	1.52134
298.15 K	1161.2	1.51997
303.15 K	1158.1	1.5186
308.15 K	1155	1.51724
313.15 K	1152	1.51585
318.15 K	1149	1.5145
323.15 K	1146	1.51313
328.15 K	1143	1.51179
333.15 K	1139.9	1.51041
338.15 K	1136.9	1.50904
343.15 K	1133.8	1.50769
348.15 K	1130.7	1.50637
353.15 K	1127.4	1.50495

[2], Stabinger viscometer
Conditions	viscosity [mPa·s]
293.15 K	240.18
298.15 K	171.97
303.15 K	126.19
308.15 K	95.04
313.15 K	73.5
318.15 K	57.66
323.15 K	46.21
328.15 K	37.66
333.15 K	31.24
338.15 K	26.08
343.15 K	22.11
348.15 K	18.95
353.15 K	16.45

CCn1cc[n+](C)c1.N#C[C-](C#N)C#N [1-ethyl-3-methyl-1H-imidazolium tricyanomethanide] + CCn1cc[n+](C)c1.C[C@H](N)C(=O)[O-]
Conditions	mass density, [3] [kg/m3]	refractive index, [4]	viscosity, [3] [mPa·s]
293.15 K	1084.6	1.51454	16.62
298.15 K	1081	1.51286	14.19
303.15 K	1077.5	1.51114	12.18
308.15 K	1073.9	1.50938	10.58
313.15 K	1070.4	1.50765	9.02
318.15 K	1067.1	1.50595	8.2
323.15 K	1063.7	1.50419	7.31
328.15 K	1060.3	1.50255	6.56
333.15 K	1056.9	1.50087	5.72
338.15 K	1053.6	1.49921	5.38
343.15 K	1050.2	1.49757	4.91
348.15 K	1046.8	1.49593	4.5
353.15 K	1043.4	1.49429	3.98
